Patent publication US20220218614A1, “IONIZABLE CATIONIC LIPIDS AND LIPID NANOPARTICLES, AND METHODS OF SYNTHESIS AND USE THEREOF” (Tidal Therapeutics, Inc., priority 2020, published 2022)
Entries after “also recorded” stand apart in the source; their conditions may differ.

What was measured:
human CD8 T cells = assay: Transfection of human CD8 T cells with Fab-targeted Cy5/GFP mRNA LNPs; type: cell-based; conditions: Lipid 8 LNP, Cy5/GFP mRNA approximately 2.5 μg/mL, approximately 24 hr, Fab conjugate post-inserted
Method: LNPs were prepared using the mixing process described in Example 6, the buffer exchange process described in Example 21. hSP34 and TRX2 Fab-lipid conjugates generated from methods described in Example 4 and a non-T cell specific anti-HER2 lipid-conjugate (Nellis D F, Ekstrom D L, Kirpotin D B, Zhu J, Andersson R, Broadt T L, Ouellette T F, Perkins S C, Roach J M, Drummond D C, Hong K, Marks J D, Park J W and Giardina S L (2005) Preclinical manufacture of an anti-HER2 scFv-PEG-DSPE, liposome-inserting conjugate. 1. Gram-scale production and purification. Biotechnol Prog 21:205-220) were post-inserted at various densities (SP34 0.6-17 g/mol; TRX2 3-9 g/mol; anti-HER2 17 g/mol) into LNPs containing Lipid 8, Cy5 labeled GFP mRNA and GFP mRNA (1:9 Cy5:GFP mass ratio) by adding conjugate and LNPs together and heating the solution without mixing in a thermal cycler at 60 C for 60 min and cooled to 4° C. for 3-5 min. […] After transfection, LNP binding efficiency (Cy5) and transfection efficiency (GFP) was evaluated by flow cytometry. Supernatants were measured for human IFNγ concentration using a commercially available ELISA kit under manufacturers recommended conditions (R&D Systems Duoset). […]

[1] = test system: primary human T-cells (CD3+ T cells); assay: In vitro LNP transfection of primary human T-cells (GFP, Cy5 or DiI, viability by FACS); type: cell-based
Description: This example describes the protocol used for in vitro LNP transfections in primary human T-cells. This method is used to assess LNP in vitro efficacy in relevant target cells (CD3+ T cells) by first transfecting the cells using LNPs loaded with mRNA encoding for a reporter gene, such as GFP mRNA, and then assessing transfection by measuring reporter gene expression by fluorescence-[…] cell sorting (FACS). Additionally, particle association with cells may be observed by in the same assay by labeling individual nanoparticle components, such as the mRNA, with a fluorescent dye, such as Cy5, and then observing cell/dye association by FACS.
CD3+ T cells were isolated from frozen peripheral blood mononuclear cells using an EasySep Human T Cell Isolation Kit on a RoboSep automated cell isolation system from […]. T cells were plated into a flat bottom 96-well plate in RPMI cell culture media supplemented with glutamax, 10% fetal bovine serum, and 40 ng/mL IL2. 100 μL of cell suspension was seeded per well at a density of 1M T cells/mL (100K T cells/well). Cells were allowed to rest for two hours in a 37° C. incubator, and then were transfected by gently adding 10 μL of a 22 μg/mL (by mRNA) nanoparticle suspension, resulting in a final mRNA concentration of 2 μg/mL. Cells were gently mixed with a pipette and then incubated for 24 hours in a 37° C. incubator. After incubation the cells were analyzed using an ThermoFisher Attune NXT flow cytometer. Cy5 was detected using a 638 nm laser with 670/14 nm filter. eGFP was detected using a 488 nm laser and a 530/30 nm filter. Data were analyzed using FlowJo software from BD biosciences. FACS data were first gated to exclude doublets and dead cells and then gated for GFP and Cy5. Gates for GFP+ and Cy5+were set such that a control sample (PBS treated T cells) was <0.1% positive.
CD3+ T cells were isolated from frozen peripheral blood mononuclear cells using an EasySep Human T Cell Isolation Kit on a RoboSep automated cell isolation system from […]. T cells were plated into a round bottom 96-well plate in RPMI cell culture media supplemented with glutamax, 10% fetal bovine serum, pen-strep, and 40 ng/mL IL-2. 100 μL of cell suspension was seeded per well at a density of 1M T cells/mL (100K T cells/well). Cells were allowed to rest for two hours in a 37° C. incubator, and then were transfected by gently adding 10 μL of a 22 μg/mL (by mRNA) nanoparticle suspension, resulting in a final mRNA concentration of 2 μg/mL (unless otherwise noted). Cells were gently mixed with a pipette and then incubated for 24 hours in a 37° C. incubator. After incubation the cells were diluted with FACS buffer (BD 554657) and analyzed using a BD Fortessa flow cytometer. Data were analyzed using FlowJo software from BD biosciences.

[2] = Freeze thaw stability of LNP formulations (storage at 4° C., −80° C. or flash frozen in liquid nitrogen; DLS); type: physicochemical; conditions: one freeze thaw cycle, relative to 4 C storage
Method: Following the preparation of the targeted LNP formulation, the formulation was split into two portions. One portion was exchanged into 40 mM pH 7.4 HEPES buffer, and the other portion was exchanged into 30 mM pH 7.4 Tris buffer. The buffer exchange was performed using a discontinuous diafiltration method where the LNP formulation sample was transferred into a centrifugal ultrafiltration device with […] MWCO regenerated cellulose membrane (Amicon Ultra-4, MilliporeSigma, Massachusetts, US), then diluted 10-fold with the exchange buffer, and concentrated back to the original volume by centrifuging at 500 rcf. This dilution and concentration step was repeated one additional time. The exchanged LNP samples were then divided into separate aliquots that were mixed with concentrated sodium chloride and sucrose solutions to provide the final freeze-thaw sample formulations. Samples of each freeze-thaw formulation were then stored at 4° C., frozen at −80° C., or flash frozen in liquid nitrogen. The samples were later thawed at room temperature and tested for size by DLS and in vitro T cell transfection.

[3] = Quant-iT RiboGreen RNA assay: dye accessible and total (Triton) mRNA content, encapsulation; type: physicochemical; conditions: Table 9: Lipid 2 and Lipid 6 LNP
Method: RNA content of the nanoparticles is measured using Thermo Fisher Quant-iT RiboGreen RNA Assay Kit. Dye accessible RNA, which includes both non-incorporated RNA and RNA that is near the surface of the nanoparticle, is measured by diluting the nanoparticles to approximately 1 μg/mL mRNA using HEPES buffered saline, and then adding Quant-iT reagent to the mixture. Total RNA content is measured by diluting the particles to 1 μg/mL mRNA using HEPES buffered saline, disrupting the nanoparticles by heating them to 60° C. for 30 minutes in HEPES buffered saline containing 0.5% Triton, and then adding Quant-It reagent. RNA is quantified by measuring fluorescence at 485/535 nm, and concentration is determined relative to a contemporaneously run RNA standard curve.

[4] = Hydrodynamic diameter and polydispersity of LNPs by dynamic light scattering (DLS), Zetasizer; type: physicochemical; conditions: insertion of anti-CD3 hSP34-PEG2k-DSPE conjugate
Method: (§1) Samples of the LNPs produced in Example 2 were characterized to determine the average hydrodynamic diameter, zeta potential, and mRNA content (total and dye-accessible). The hydrodynamic diameter was determined by dynamic light scattering (DLS) using a Zetasizer model ZEN3600 (Malvern Pananalytical, UK). The zeta potential was measured in 5 mM pH 5.5 MES buffer and 5 mM pH 7.4 HEPES buffer by laser Doppler electrophoresis using the Zetasizer.

[5] = Zeta potential of LNPs by laser Doppler electrophoresis in 5 mM pH 5.5 MES and 5 mM pH 7.4 HEPES buffer; type: physicochemical; conditions: pH 5.5 MES and pH 7.4 HEPES buffer
Method: as §1

[6] = Apparent pKa of LNPs by TNS fluorescent probe; type: physicochemical; conditions: LNP made with the named ionizable lipid; pH at 50% of maximum TNS fluorescence
Description: This example describes the fluorescent dye based method used for measurement of the apparent pKa of the lipid nanoparticles. Apparent pKa determines the nanoparticle surface charge under physiological pH conditions, typically a pKa value in the endosomal pH range (6-7.4) results in LNPs that are neutral or slightly charged at plasma or the extracellular space (pH 7.4) and become strongly positive under acidic endosomal environments. This positive surface charge drives fusion of the LNP surface with negatively charged endosomal membranes resulting in destabilization and rupture of the endosomal compartment and LNP escape into the cytosolic compartment, a critical step in cytosolic delivery of mRNA and protein expression via engagement of the cells ribosomal machinery.
The apparent pKa of LNPs made using ionizable Lipids 2, 5 (synthesized as described in example 1), 6 and 7 (synthesized using method analogous to Lipid 2, 5, respectively, except using diethyl amine instead of dimethyl amine to incorporate the tertiary amine head group) were determined by 6-(p-Toluidino)-2-naphthalenesulfonic acid (TNS) fluorescence measurement in aqueous buffers covering a range of pH values (pH 4-pH 10). TNS is non-fluorescent when free in solution, but which fluoresces strongly when associated with a positively charged lipid nanoparticle. At a pH values below the pKa of the nanoparticle, positive LNP surface charge results in dye recruitment at the particle interface resulting in TNS fluorescence. At pH values above the LNP pKa no fluorescence is observed. The apparent pKa of the LNP is reported as the pH at which the fluorescence is at 50% of its maximum, as determined using a four-point logistic curve fit.

[7] = theoretical total mRNA 45 μg/mL

Compound | transfection (% GFP+, GFP MFI) and binding (% Cy5+, Cy5 MFI), in words (human CD8 T cells) | T-cell transfection and cell association after freeze-thaw, in words ([1]; after one freeze thaw cycle, relative to 4 C storage) | GFP protein expression (% GFP+ cells, GFP MFI), in words ([1]; hSP34 targeted LNP with GFP mRNA, 24 hours) | LNP association with cells (% Cy5+/Cy5 MFI or % DiI+/DiI MFI), in words ([1]; hSP34 targeted LNP, 24 hours) | T-cell viability / tolerability, in words ([1]; hSP34 targeted LNP, 24 hours, dose as in the value) | LNP size and polydispersity after freeze-thaw, in words [2] | % Dye Accessible mRNA [3] [%] | Measured total (Triton method) mRNA [3, 7] [µg/mL] | Ribogreen Dye Accessible mRNA [3, 7] [µg/mL] | change in particle size and PDI upon conjugate insertion [4] | LNP surface charge (zeta potential), in words [5] | apparent pKa of LNP (TNS) [6]
Hu291: anti-CD3 Fab, SEQ ID NO: 4 and 5 | high levels of % Cy5+ T cells | – | – | – | – | – | – | – | – | – | – | –
CCCCC/C=C\C/C=C\CCCCCCCC(=O)OC[C@H](COC(=O)CCCN(CC)CC)OC(=O)CCCCCCC/C=C\C/C=C\CCCCC [Lipid 6] | – | retained function after being subjected to freeze-thaw stress | Dose dependent expression of GFP protein | equally associated with cells | well tolerated by T-cells at all LNP doses tested; also recorded: moderately higher viability at higher dose of 2 μg/mL | minor changes in particle size distributions after frozen storage at −80 C | 15 | 40 | 6 | significantly greater size distribution changes compared to Lipid 12 and Lipid 13 LNPs; also recorded: moderate changes in particle size and PDI | greater positive surface charge relative to Lipid 12 and 13 | ~7
